Experimental data taken from patent US20210369677A1, “SMALL MOLECULE ACTIVATORS OF POLYCYSTIN-2 (PKD2) AND USES THEREOF” (Northwestern University, priority 2020, published 2021).

Molecular target: T1, polycystin-2 channels (Mus musculus, UniProt O35245, DEL771-772)
T1 construct: the mouse channel orthologue under endogenous expression in the kidney collecting duct; endogenous in cells; host or cells: primary inner medullary collecting duct (pIMCD) cells of ARL13B-EGFP mice
T1 sequence (O35245 with tags, fused parts or gaps DEL771-772): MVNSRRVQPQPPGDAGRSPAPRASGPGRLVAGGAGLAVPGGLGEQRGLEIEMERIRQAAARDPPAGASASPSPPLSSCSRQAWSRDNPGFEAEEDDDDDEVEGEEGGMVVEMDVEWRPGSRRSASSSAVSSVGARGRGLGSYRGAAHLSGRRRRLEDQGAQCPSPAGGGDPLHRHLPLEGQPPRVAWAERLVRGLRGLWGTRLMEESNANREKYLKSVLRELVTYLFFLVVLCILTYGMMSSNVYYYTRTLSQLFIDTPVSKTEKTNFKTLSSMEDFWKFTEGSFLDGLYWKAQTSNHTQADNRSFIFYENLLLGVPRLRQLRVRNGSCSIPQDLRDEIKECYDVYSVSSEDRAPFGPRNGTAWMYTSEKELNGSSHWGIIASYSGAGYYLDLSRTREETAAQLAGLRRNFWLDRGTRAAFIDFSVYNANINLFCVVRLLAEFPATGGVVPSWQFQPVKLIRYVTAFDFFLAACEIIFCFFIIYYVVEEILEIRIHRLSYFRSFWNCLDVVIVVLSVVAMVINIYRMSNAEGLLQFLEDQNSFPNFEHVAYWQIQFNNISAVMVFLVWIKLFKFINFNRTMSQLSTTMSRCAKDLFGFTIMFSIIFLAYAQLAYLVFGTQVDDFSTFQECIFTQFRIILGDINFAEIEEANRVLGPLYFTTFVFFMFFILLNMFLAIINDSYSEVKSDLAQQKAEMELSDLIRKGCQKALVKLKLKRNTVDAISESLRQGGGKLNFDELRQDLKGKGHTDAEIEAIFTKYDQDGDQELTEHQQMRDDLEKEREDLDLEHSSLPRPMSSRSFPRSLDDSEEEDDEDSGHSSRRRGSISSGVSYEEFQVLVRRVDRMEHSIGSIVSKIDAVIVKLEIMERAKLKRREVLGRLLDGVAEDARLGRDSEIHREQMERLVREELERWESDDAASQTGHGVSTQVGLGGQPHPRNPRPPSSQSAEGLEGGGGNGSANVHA
Test: Inside-out cilia patch of pIMCD cells, calcium opening of polycystin-2 channels
Type: cell-based
Conditions: Pkd2del-Z/delZ mice; read-out: EC50, potency of calcium opening polycystin-2 channels
Protocol: Cell culture of primary inner medullary collecting duct cells and immortalized cell lines. Primary inner medullary collecting ducts cells (pIMCD) were isolated from WT or Pkd2^del-Z/del-Z mice co-expressing the ARL13B-EGFP cilia reporter using the previously described method (Liu et al., 2018). Briefly, inner medullae were removed from the kidney and disassociated using a Dulbecco's phosphate buffered solution (DPBS) containing 2 mg/ml collagenase A and 1 mg/ml hyaluronidase. After mechanical disassociation on ice, medullary cells were cultured in Dulbecco's modified essential medium (DMEM) supplemented with 10% fetal bovine serum (FBS) and 100 units/ml penicillin/100 μg/ml streptomycin. Cilia were patched from cells within 6 days after isolation and within one passage. HEK PKD2^Null cell lines were generated using the CRISPR/Cas9 gene editing kit available from Addgene and authenticated using PCR analysis, as previously described (Liu et al., 2018). […]
Electrophysiology. The electrophysiologist was blinded by a third party in the laboratory, where test groups were assigned a letter to conceal the genetic identity of the cells being evaluated. […] Ciliary ion currents were recorded using borosilicate glass electrodes polished to resistances of 14-23 MΩ using the cilium patch method previously described (Vien et al., 2020). Single channel currents measured in the inside-out configuration were recorded in symmetrical sodium concentrations. […] Calcium was buffered with 5 EGTA (ethylene glycol-bis(o-aminoethyl ether)-N,N,N′,N′-tetraacetic acid), 5 Na4-BAPTA (Glycine, N, N′-[1,2-ethanediylbis(oxy-2,1-phenylene)]bis[N-(carboxymethyl)]-,tetrasodium) and 0.5 EDTA […]; free calcium was calculated using Maxchilator and titration of 1 M CaCl2) solution (Bers et al., 2010); pH was adjusted to 7.3 using NaOH. […] Whole cell currents used to measure CDD were also recorded in symmetrical sodium concentration, placing the internal recording solution in the pipette electrode and the external recording solution in the bath. […]

Q: [Ca+2] [Ca^2+, calcium] was tested. Which EC50 did it give?
A: Its EC50 is 1.4 ± 0.3 µM.
